Read-outs that look alike come from different tables or passages of the source.

The subject of series [1] is KRAS-G12D mutant tumor cells AGS. Nature of the series: Cell Proliferation Inhibition Assay (AGS), Cell-titer GLO, 96 h. The format is cell-based. To be noted: AGS cells, 96 h incubation, Cell-titer GLO, read-out: AGS(G12D). The essentials:
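AGS cells (KRAS-G12D) grown in low-attachment plates were exposed to compound for 96 h at 37°C. Viability was read by CellTiter-Glo luminescence and converted to % inhibition against max and blank wells. IC50 came from curve fitting.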

Series [2] concerns KRAS-G12V mutant tumor cells SW620. Kind of series: Cell Proliferation Inhibition Assay (SW620), Cell-titer GLO, 96 h. To be noted: SW620 cells, 96 h incubation, Cell-titer GLO, read-out: SW620(G12V). In kind it is cell-based. The essentials:
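SW620 cells (1×10^3/well, low-attachment) were exposed to compound from 10000 to 0.03 nM (0.5% DMSO) for 96 h at 37°C. Viability was read by Cell-titer GLO luminescence. Inhibition was calculated relative to DMSO and blank wells, and IC50 obtained by curve fitting.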

A further series has as its target T1, KRAS G12D-cRAF (Homo sapiens, UniProt P01116, G12D).
T1 construct: expressed in transfected cells
Nature of the series: Cellular KRAS G12D-cRAF Binding Inhibition Assay (NanoBRET, AD293 stable cells). The format is cell-based. As to conditions: 3 h incubation, read-out: NanoBRET KRAS G12D. In a few lines:
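AD293 cells stably expressing KRAS G12D-NanoLuc and cRAF RBD-HaloTag were seeded at 1×10^4 cells/well with NanoBRET 618 ligand overnight. BRET signal was converted to % inhibition of binding relative to max and blank wells, and IC50 came from curve fitting.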

In a further series the target is T2, KRAS G12V-cRAF (Homo sapiens, UniProt P01116, G12V).
T2 construct: expressed in transfected cells
Nature of the series: Cellular KRAS G12V-cRAF Binding Inhibition Assay (NanoBRET, AD293 stable cells). In kind it is cell-based. As to conditions: 3 h incubation, read-out: NanoBRET KRAS G12V. The essentials: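 Live AD293 stable cells, NanoLuc donor with HaloTag NanoBRET 618 ligand acceptor added overnight. Inhibition percent from luminescence relative to max signal and medium blank; IC50 from curve fitting.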

A short description of series [3]: PK Study of Compounds in Rats. The format is in vivo, Male SD rats. As to conditions: mean; for F: PO 10 mg/kg vs IV 1 mg/kg (n=3); for Cmax: read-out: C0/Cmax. On the procedure: The test compound was mixed with the vehicle (10% DMSO/5% Solutol/85% physiological saline), vortexed and sonicated to prepare a clear 0.5 mg/mL intravenous injection solution. The test compound was mixed with the vehicle (20% PEG400/10% Solutol/70% pH 4.5 acetate buffer), vortexed and sonicated to prepare a clear 1 mg/mL oral solution. Male SD rats aged 6 to 7 weeks were selected and administered the test compound via intravenous (IV) and oral (PO) routes, respectively. Whole blood samples were collected at 5 min, 15 min, 30 min, 1 h, 2 h, 4 h, 7 h, and 24 h for the intravenous route, and at 15 min, 30 min, 1 h, 2 h, 4 h, 7 h, and 24 h for the oral route. Drug concentrations were analyzed by LC-MS/MS method, and pharmacokinetic parameters were calculated using Phoenix WinNonlin software (Pharsight, USA).

The mark [4] stands for this setting: male, SD, rat, whole blood, IV 1 mg/kg (n=3).
Where [5] appears, read: male, SD, rat, whole blood, PO 10 mg/kg (n=3).

`CC1OCCCn2c(c3c4cc(ccc42)-c2csc(n2)CC(NC(=O)C2C(C)C2C)C(=O)N2CCCC(N2)C(=O)OCC(C)(C)C3)-c2cc(N3CC(C)N(C)C(C)C3)cnc21` [Example 165, (1r,2R,3S)-2,3-dimethyl-N-((1^5S,6^3S,4S,Z)-1^5,10,10-trimethyl-5,7-dioxo-1^2-((3S,5R)-3,4,5-trimethylpiperazin-1-yl)-1^8,1^9,6^1,6^2,6^3,6^4,6^5,6^6-octahydro-1^5H,1^7H-8-oxa-1(13,15)-pyrido[3',2':7,8][1, 5]oxazonino[5,6-a]indola-2(4,2)-thiazola-6(1,3)-pyridazinacycloundecaphane-4-yl)cyclopropane-1-carboxamide]: the IC50 in series [1] (Homo sapiens, AGS, 96 h) was found to be 0.19 nM; in series [2] (Homo sapiens, SW-620, 96 h), 0.05 nM; at KRAS G12D-cRAF it was 0.76 nM; at KRAS G12V-cRAF, 3.8 nM.
For `CC1OCCCn2c(c3c4cc(ccc42)-c2csc(n2)CC(NC(=O)C2C(C)C2C)C(=O)N2CCCC(N2)C(=O)OCC(C)(C)C3)-c2cc(N3CC(C)N(C)C(C)C3)cnc21` [Example 171, (1r,2R,3S)-2,3-dimethyl-N-((1^5S,6^3S,4S,Z)-15,10,10-trimethyl-5,7-dioxo-1^2-((3S,5S)-3,4,5-trimethylpiperazin-1-yl)-1^8,1^9,6^1,6^2,6^3,6^4,6^5,6^6-octahydro-1^5H,1^7H-8-oxa-1(13,15)-pyrido[3',2':7,8][1, 5]oxazonino[5,6-a]indola-2(4,2)-thiazola-6(1,3)-pyridazinacycloundecaphane-4-yl)cyclopropane-1-carboxamide], the IC50 is 0.11 nM in series [1], 0.04 nM in series [2], 0.24 nM on KRAS G12D-cRAF and 3.04 nM at KRAS G12V-cRAF.
`CC1OCCCn2c(c3c4cc(ccc42)-c2csc(n2)CC(NC(=O)C24CC(C)(C2)C4)C(=O)N2CCCC(N2)C(=O)OCC(C)(C)C3)-c2cc(N3CC(C)N(C)C(C)C3)cnc21` [Example 172, 3-methyl-N-((1^5S,6^3S,4S,Z)-1^5,10,10-trimethyl-5,7-dioxo-1^2-((3S,5S)-3,4,5-trimethylpiperazin-1-y)-1^8,1^9,6^1,6^2,6^3,6^4,6^5,6^6-octahydro-1^5H,1^7H-8-oxa-1(13,15)-pyrido[3',2':7,8][1,5]oxazonino[5,6-a]indola-2(4,2)-thiazola-6(1,3)-pyridazinacycloundecaphane-4-yl)bicyclo[1.1.1]pentane-1-carb oxamide]: the IC50 in series [1] (Homo sapiens, AGS, 96 h) was 1.1 nM; in series [2] (Homo sapiens, SW-620, 96 h), 0.32 nM; at KRAS G12D-cRAF it was 2.02 nM; at KRAS G12V-cRAF, 6.7 nM.
On the same counts, the results for `CC1OCCCn2c(c3c4cc(ccc42)-c2csc(n2)CC(NC(=O)C2CC2C)C(=O)N2NC(C(=O)OCC(C)(C)C3)C3CC2C3)-c2cc(N3CCN(C)CC3)cnc21` [Example 183, (1S,2S)-2-methyl-N-((1^5S,6^4S,4S,Z)-1^5,10,10-trimethyl-1^2-(4-methylpiperazin-1-yl)-5,7-dioxo-1 ^8,1^9-dihydro-1^5H,1^7H-8-oxa-6^2,6^3-diaza-1(13,15)-pyrido[3',2':7,8][1,5]oxazonino[5,6-a]indola-2(4,2)-thiazola-6(2,4)-bicyclo[3.1.1]heptanacycloundecaphane-4-yl)cyclopropane-1-carboxamide] are 2 nM, 0.6 nM, 2.7 nM and 17.6 nM.
On to `CC1OCCCn2c(c3c4cc(ccc42)-c2csc(n2)CC(NC(=O)C2C4COCC42)C(=O)N2NC(C(=O)OCC(C)(C)C3)C3CC2C3)-c2cc(N3CCN(C)CC3)cnc21` [Example 192, (1R,5S,6r)-N-((1^5S,6^4S,4S,Z)-1^5,10,10-trimethyl-1^2-(4-methylpiperazin-1-yl)-5,7-dioxo-1^8,1^9-dihydro-1^5H,1^7H-8-oxa-6^2,6^3-diaza-1(13,15)-pyrido[3',2':7,8][1,5]oxazonino[5,6-a]indola-2(4,2)-thiazola-6(2,4)-bicyclo[3.1.1]heptanacycloundecaphane-4-yl)-3-oxabicyclo[3.1.0]hexane-6-carboxamide], for which the IC50 in series [1] (Homo sapiens, AGS, 96 h) is 1.5 nM; in series [2] (Homo sapiens, SW-620, 96 h), 0.9 nM; on KRAS G12D-cRAF, 4.3 nM; on KRAS G12V-cRAF, 16.3 nM. Besides, the F in series [3] turned out to be 11.9. In series [3] (setting [4]), the clearance (as a rule, a measure of how efficiently the substance is removed, as volume per time) amounted to 3.59 mL/min/kg. Besides, the half-life (as a rule, how long it takes for the measured level to halve) in series [3] (setting [4]) is 296 min; in series [3] (setting [5]), 308 min. Further, the AUC(0-t) in series [3] (male, SD, rat, whole blood, IV 1 mg/kg (n=3), read-out: AUC0-t) was 4500 ng·h/mL; in series [3] (male, SD, rat, whole blood, PO 10 mg/kg (n=3), read-out: AUC0-t), 5350 ng·h/mL. Besides, the figures for the Cmax in series [3] (setting [4]) and in series [3] (setting [5]) were 4220 ng/mL and 472 ng/mL, respectively. Besides, in series [3] (male, SD, rat, whole blood, IV 1 mg/kg (n=3), read-out: Vss), the Vd came out at 1.11 L/kg. For the same compound, the time to peak (Tmax) (in general, the time from dosing to the highest level) in series [3] (male, SD, rat, whole blood, PO 10 mg/kg (n=3), read-out: Tmax) came to 3.33 h.
In the case of `CC1OCCCn2c(c3c4cc(ccc42)-c2csc(n2)CC(NC(=O)C2C(C)C2C)C(=O)N2CCCC(N2)C(=O)OCC(C)(C)C3)-c2cc(CN3CCN(C)CC3)cnc21` [Example 193, (1r,2R,3S)-2,3-dimethyl-N-((1^5S,6^3S,4S,Z)-1^5,10,10-trimethyl-1^2-((4-methylpiperazin-1-yl)methyl)-5,7-dioxo-1^8,1^9,6^1,6^2,6^3,6^4,6^5,6^6-octahydro-1^5H,1^7H-8-oxa-1(13,15)-pyrido[3',2':7,8][1,5]oxazonino[5,6-a]indola-2(4,2)-thiazola-6(1,3)-pyridazinacycloundecaphane-4-yl)cyclopropane-1-car boxamide], the IC50 in series [1] (Homo sapiens, AGS, 96 h) worked out at 0.9 nM; in series [2] (Homo sapiens, SW-620, 96 h) it was 0.2 nM; at KRAS G12D-cRAF it was 1.2 nM; on KRAS G12V-cRAF, 27.1 nM.
Consider `CCN1CCN(c2cnc3c(c2)-c2c4c5cc(ccc5n2CCCOC3C)-c2coc(n2)CC(NC(=O)C2C(C)C2C)C(=O)N2NC(C(=O)OCC(C)(C)C4)C3CC2C3)CC1` [Example 197, (1r,2R,3S)-N-((1^5S,6^4S,4S,Z)-1^2-(4-ethylpiperazin-1-yl)-1^5,10,10-trimethyl-5,7-dioxo-1^8,1^9-dihydro-1^5H,1^7H-8-oxa-6^2,6^3-diaza-1(13,15)-pyrido[3',2':7,8][1,5]oxazonino[5,6-a]indola-2(4,2)-oxazola-6(2,4)-bicyclo[3.1.1]heptanacycloundecaphane-4-yl)-2,3-dimethylcyclopropane-1-carboxamide], for which the IC50 in series [1] (Homo sapiens, AGS, 96 h) was determined as 0.03 nM; in series [2] (Homo sapiens, SW-620, 96 h), 0.01 nM; at KRAS G12D-cRAF it was 0.3 nM; at KRAS G12V-cRAF, 2 nM.
As to “(1S,2S)-2-(difluoromethyl)-N-((1^5S,6^3S,4S,Z)-1^5,10,10-trimethyl-1^2-(6-methyl-3,6-diazabicyclo[ 3.1.1]heptan-3-yl)-5,7-dioxo-1^8,1^9,6^1,6^2,6^3,6^4,6^5,6^6-octahydro-1^5H,1^7H-8-oxa-1(13,15)-pyrido[3', 2':7,8][1,5]oxazonino[5,6-a]indola-2(4,2)-thiazola-6(1,3)-pyridazinacycloundecaphane-4-yl)cycl opropane-1-carboxamide [Example 150]”, the IC50 in series [1] turned out to be 0.93 nM; in series [2], 0.16 nM; at KRAS G12D-cRAF it was 1.61 nM; on KRAS G12V-cRAF, 8.1 nM.
“(1S,2S)-2-(difluoromethyl)-N-((1^5S,6^4S,4S,Z)-1^5,10,10-trimethyl-1^2-(4-methylpiperazin-1-yl)-5, 7-dioxo-1^8,1^9-dihydro-1^5H,1^7H-8-oxa-6^2,6^3-diaza-1(13,15)-pyrido[3',2':7,8][1,5]oxazonino[5,6-a ]indola-2(4,2)-thiazola-6(2,4)-bicyclo[3.1.1]heptanacycloundecaphane-4-yl)cyclopropane-1-carb oxamide [Example 184]”: the IC50 in series [1] came out at 0.9 nM. Moreover, the IC50 in series [2] was 0.65 nM. Also, in series [3] (IV 1 mg/kg (n=3)), the AUC(0-t) came out at 5558 ng·h/mL; the CL was found to be 2.56 mL/min/kg; the T1/2 turned out to be 9.07 h; the volume of distribution (Vss) (as a rule, a proportionality between amount in the body and measured concentration, not a real space) came out at 1.71 L/kg. Besides, in series [3] (PO 10 mg/kg (n=3)), the AUC(0-t) stood at 10910 ng·h/mL and the Tmax is recorded as 3.33 h. For the same compound, the F in series [3] is listed as 19.6.
